Activity data for seven compounds are collected here from ChEMBL document CHEMBL1148108, “Prenylated isoflavonoids from the root bark of Erythrina vogelii” (J Nat Prod, 2002).

Activity calls are given as the source filed them. The calls are words filed in the database; no cut-off is given here.

This assay has as its system Cladosporium cucumerinum. Put plainly: Antifungal activity against Cladosporium cucumerinum by TLC biautography assay. It counts as functional, organism-based.
Consider `CC1(C)Oc2ccc(-c3coc4cc(O)cc(O)c4c3=O)cc2C[C@@H]1O`, for which the result was inactive.

As for `COc1ccc([C@@H]2COc3cc(O)c(CC=C(C)C)c(O)c3C2=O)cc1CC=C(C)C`, the outcome was inactive.

With `CC(C)=CCc1c(O)cc(O)c2c(=O)c(-c3ccc4c(c3)C=CC(C)(C)O4)coc12`, the result was inactive.

Turning to `C/C(=C\Cc1cc(-c2coc3cc(O)cc(O)c3c2=O)ccc1O)CO`, the result was inactive.

For `CC(C)=CCc1cc(-c2coc3cc(O)cc(O)c3c2=O)cc2c1OC(C)(C)C(O)C2` (configuration not stated), the result was inactive.

As to `CC(C)=CCc1c(O)cc2occ(-c3ccc4c(c3)C=CC(C)(C)O4)c(=O)c2c1O`, the result was inactive.

For the compound `COc1cc(O)c(CC=C(C)C)cc1-c1coc2cc(O)cc(O)c2c1=O`, the outcome was inactive.
